In ChEMBL document CHEMBL2074520, “Characterization of the high-affinity monocarboxylate transporter MCT2 in Xenopus laevis oocytes” (Biochem J, 1999):

Experiments:
[1] = molecular target: T1, Monocarboxylate transporter 1 (Rattus norvegicus) (UniProt P53987); test: (§1) TP_TRANSPORTER: inhibition of lactate uptake in Xenopus laevis oocytes; assay type: functional, cell-based; design: concentration or dose not given beside the values; conditions: Oocyte
T1 sequence (whole entry): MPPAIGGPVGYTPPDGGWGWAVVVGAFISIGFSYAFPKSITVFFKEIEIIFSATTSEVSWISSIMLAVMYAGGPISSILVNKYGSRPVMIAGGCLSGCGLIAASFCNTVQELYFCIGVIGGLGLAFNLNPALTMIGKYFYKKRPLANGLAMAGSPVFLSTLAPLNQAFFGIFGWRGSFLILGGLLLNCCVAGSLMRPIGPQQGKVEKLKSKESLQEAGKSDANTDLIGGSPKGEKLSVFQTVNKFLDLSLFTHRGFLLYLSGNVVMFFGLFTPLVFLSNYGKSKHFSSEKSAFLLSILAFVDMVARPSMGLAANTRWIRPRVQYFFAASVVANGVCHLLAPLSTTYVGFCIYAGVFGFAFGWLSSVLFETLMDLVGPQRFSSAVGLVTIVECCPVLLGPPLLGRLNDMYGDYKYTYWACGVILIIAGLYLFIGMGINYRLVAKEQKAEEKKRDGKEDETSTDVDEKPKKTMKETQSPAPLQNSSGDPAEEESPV

[2] = molecular target: T2, Monocarboxylate transporter 2 (Rattus norvegicus) (UniProt Q63344); test: as §1; assay type: functional, cell-based; design: concentration or dose not given beside the values; conditions: Oocyte
T2 sequence (whole entry): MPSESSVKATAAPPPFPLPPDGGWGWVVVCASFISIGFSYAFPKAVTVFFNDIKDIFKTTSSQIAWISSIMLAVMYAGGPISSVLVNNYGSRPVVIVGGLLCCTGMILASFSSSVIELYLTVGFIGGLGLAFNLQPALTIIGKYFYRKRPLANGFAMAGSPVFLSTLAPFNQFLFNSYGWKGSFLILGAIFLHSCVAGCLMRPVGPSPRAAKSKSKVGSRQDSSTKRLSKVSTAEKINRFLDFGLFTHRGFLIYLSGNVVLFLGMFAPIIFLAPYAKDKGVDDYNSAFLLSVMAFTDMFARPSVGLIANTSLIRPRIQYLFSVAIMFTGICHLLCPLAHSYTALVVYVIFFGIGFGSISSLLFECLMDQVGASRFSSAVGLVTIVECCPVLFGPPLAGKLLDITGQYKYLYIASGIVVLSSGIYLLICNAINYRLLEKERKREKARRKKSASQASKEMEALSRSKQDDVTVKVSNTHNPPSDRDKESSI

[3] = molecular target: Monocarboxylate transporter 2 (Rattus norvegicus) (UniProt Q63344); test: as §1; assay type: functional, cell-based; design: concentration or dose not given beside the values; conditions: Oocyte; remark: listed apart in the source
[4] = molecular target: Monocarboxylate transporter 1 (Rattus norvegicus) (UniProt P53987); test: as §1; assay type: functional, cell-based; design: concentration or dose not given beside the values; conditions: Oocyte; remark: listed apart in the source
[5] = molecular target: T3, Monocarboxylate transporter 2 (Rattus norvegicus, UniProt Q63344); test: as §1; assay type: functional, cell-based, Oocyte
T3 sequence (Q63344 whole entry): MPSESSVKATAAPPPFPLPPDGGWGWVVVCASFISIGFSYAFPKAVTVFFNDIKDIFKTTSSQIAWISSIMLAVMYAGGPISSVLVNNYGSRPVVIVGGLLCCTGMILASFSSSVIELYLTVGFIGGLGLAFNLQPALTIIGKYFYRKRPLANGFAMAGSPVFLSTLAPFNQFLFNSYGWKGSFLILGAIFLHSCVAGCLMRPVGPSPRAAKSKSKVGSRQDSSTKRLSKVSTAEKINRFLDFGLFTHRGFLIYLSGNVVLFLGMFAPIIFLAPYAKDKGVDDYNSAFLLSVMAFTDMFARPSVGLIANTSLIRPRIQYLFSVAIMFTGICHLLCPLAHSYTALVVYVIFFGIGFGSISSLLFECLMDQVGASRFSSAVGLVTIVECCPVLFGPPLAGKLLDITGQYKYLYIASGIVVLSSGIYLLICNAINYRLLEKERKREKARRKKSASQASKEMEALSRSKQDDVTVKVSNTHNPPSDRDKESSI

[6] = molecular target: T4, Monocarboxylate transporter 1 (Rattus norvegicus, UniProt P53987); test: as §1; assay type: functional, cell-based, Oocyte
T4 sequence (P53987 whole entry): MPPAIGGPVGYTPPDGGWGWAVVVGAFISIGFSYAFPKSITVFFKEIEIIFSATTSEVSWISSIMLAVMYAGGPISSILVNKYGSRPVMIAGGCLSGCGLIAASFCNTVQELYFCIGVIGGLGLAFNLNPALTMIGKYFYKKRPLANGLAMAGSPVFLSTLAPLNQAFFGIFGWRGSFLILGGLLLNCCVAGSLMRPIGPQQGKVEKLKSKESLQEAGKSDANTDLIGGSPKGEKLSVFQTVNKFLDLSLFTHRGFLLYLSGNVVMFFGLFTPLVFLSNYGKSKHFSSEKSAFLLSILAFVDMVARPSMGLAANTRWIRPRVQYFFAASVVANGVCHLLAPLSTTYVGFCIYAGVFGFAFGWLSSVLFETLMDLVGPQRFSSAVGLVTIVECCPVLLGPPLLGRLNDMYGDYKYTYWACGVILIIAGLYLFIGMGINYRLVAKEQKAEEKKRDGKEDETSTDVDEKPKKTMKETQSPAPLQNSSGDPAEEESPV

[7] = compound: C[C@@H](O)C(=O)O; test: as §1; assay type: functional, cell-based; conditions: Oocyte

Molecule: c1ccc(CSSCc2ccccc2)cc1
- Activity [1]: 99%
- Activity [2]: 44%

Molecule: MERCURIC CHLORIDE
- Activity [3]: 54%
- Activity [4]: 37%

Molecule: CCc1oc2ccccc2c1C(=O)c1cc(Br)c(O)c(Br)c1 [BENZBROMARONE]
- IC50 [5]: 9 µM
- IC50 [6]: 22 µM
- Activity [1]: 19%
- Activity [2]: 12%

Molecule: O=[N+]([O-])c1ccc(/C=C/c2ccc([N+](=O)[O-])cc2S(=O)(=O)O)c(S(=O)(=O)O)c1
- Activity [1]: 112%
- Activity [2]: 119%

Molecule: O=C(CCc1ccc(O)cc1)c1c(O)cc(O)cc1O [PHLORETIN]
- IC50 [5]: 14 µM
- IC50 [6]: 28 µM
- Activity [1]: 14%
- Activity [2]: 3%

Molecule: O=C(O)CC12CC3CC(CC(C3)C1)C2
- Activity [1]: 96%
- Activity [2]: 113%

Molecule: p-Chloromercuribenzenesulfonate
- Activity [3]: 118%
- Activity [4]: 9%

Molecule: O=C(O)c1cccnc1Nc1cccc(C(F)(F)F)c1
- Activity [1]: 36%
- Activity [2]: 14%

Molecule: N#C/C(=C\c1ccc(O)cc1)C(=O)O [alpha-CYANO-4-HYDROXYCINNAMIC ACID]
- IC50 [5]: 24 µM
- IC50 [6]: 425 µM
- Activity [1]: 74.4%
- Activity [2]: 34%

Molecule: CCCN(CCC)S(=O)(=O)c1ccc(C(=O)O)cc1
- Activity [1]: 110%
- Activity [2]: 88%

Molecule: O=C(O)c1cc([N+](=O)[O-])ccc1NCCCc1ccccc1
- Activity [1]: 54%
- Activity [2]: 25%

Molecule: CC(O)CC(=O)O (racemic) [3-HYDROXYBUTYRIC ACID, (+/-)-]
- Ki [5]: 1200 µM

Molecule: CCCCCC#CCC#CCC#CCC#CCCCC(=O)O
- Activity [1]: 117%
- Activity [2]: 125%

Molecule: CC(C)CC(=O)C(=O)O [2-Oxoisohexanoate]
- Ki [5]: 100 µM

Molecule: O=C(O)C(O)c1ccccc1 (stereo not drawn)
- Activity [1]: 97%
- Activity [2]: 117%

Molecule: CC(=O)Oc1ccccc1O
- Activity [1]: 92%
- Activity [2]: 105%

Molecule: O=C(O)c1c2ccccc2cc2ccccc12
- Activity [1]: 102%
- Activity [2]: 104%

Molecule: O=c1c(O)c(-c2ccc(O)c(O)c2)oc2cc(O)cc(O)c12 [QUERCETIN]
- IC50 [5]: 5 µM
- IC50 [6]: 14 µM
- Activity [1]: 11%
- Activity [2]: 17%

Molecule: CC(C)C(=O)C(=O)O [2-Oxoisovalerate]
- Ki [5]: 300 µM

Molecule: O=C(O)c1ccc(-c2ccccc2)cc1
- Activity [1]: 88%
- Activity [2]: 74%

Molecule: CC(=O)CC(=O)O [ACETOACETIC ACID]
- Ki [5]: 800 µM

Molecule: CC(=O)C(=O)O [PYRUVATE]
- Ki [5]: 80 µM

B1: Monocarboxylate transporter 2 (Rattus norvegicus), Q63344 (protein)
chain: MPSESSVKATAAPPPFPLPPDGGWGWVVVCASFISIGFSYAFPKAVTVFFNDIKDIFKTTSSQIAWISSIMLAVMYAGGPISSVLVNNYGSRPVVIVGGLLCCTGMILASFSSSVIELYLTVGFIGGLGLAFNLQPALTIIGKYFYRKRPLANGFAMAGSPVFLSTLAPFNQFLFNSYGWKGSFLILGAIFLHSCVAGCLMRPVGPSPRAAKSKSKVGSRQDSSTKRLSKVSTAEKINRFLDFGLFTHRGFLIYLSGNVVLFLGMFAPIIFLAPYAKDKGVDDYNSAFLLSVMAFTDMFARPSVGLIANTSLIRPRIQYLFSVAIMFTGICHLLCPLAHSYTALVVYVIFFGIGFGSISSLLFECLMDQVGASRFSSAVGLVTIVECCPVLFGPPLAGKLLDITGQYKYLYIASGIVVLSSGIYLLICNAINYRLLEKERKREKARRKKSASQASKEMEALSRSKQDDVTVKVSNTHNPPSDRDKESSI
- Km [7]: 740 µM
